# Measured values taken from patent publication US7604939B2, “Methods of identifying active BRM expression-promoting HDAC inhibitors” (The Regents of the University of Michigan, priority 2005, dated 2009).
# Like-named read-outs stand apart in the source and are kept apart here. Where a SMILES comes first, the peptide text is derived from it. [ ]: non-standard residue; d: D form. Aoe = N[C@@H](CCCCCC(=O)[C@@H]1CO1)C(=O)O
# Key:
# [1] = tested on: p16 expression; experiment: p16 expression by semi-quantitative RT-PCR in control cell lines; format: cell-based, human; settings: 5uM on three consecutive days; H23 and H441 cell lines
# [2] = target: HDAC1 (Homo sapiens, UniProt Q13547); settings: cited from earlier work; for Sensitivity of HDAC1 to the inhibitor: Class 1 HDAC
# HDAC1, sequence (Q13547 whole entry): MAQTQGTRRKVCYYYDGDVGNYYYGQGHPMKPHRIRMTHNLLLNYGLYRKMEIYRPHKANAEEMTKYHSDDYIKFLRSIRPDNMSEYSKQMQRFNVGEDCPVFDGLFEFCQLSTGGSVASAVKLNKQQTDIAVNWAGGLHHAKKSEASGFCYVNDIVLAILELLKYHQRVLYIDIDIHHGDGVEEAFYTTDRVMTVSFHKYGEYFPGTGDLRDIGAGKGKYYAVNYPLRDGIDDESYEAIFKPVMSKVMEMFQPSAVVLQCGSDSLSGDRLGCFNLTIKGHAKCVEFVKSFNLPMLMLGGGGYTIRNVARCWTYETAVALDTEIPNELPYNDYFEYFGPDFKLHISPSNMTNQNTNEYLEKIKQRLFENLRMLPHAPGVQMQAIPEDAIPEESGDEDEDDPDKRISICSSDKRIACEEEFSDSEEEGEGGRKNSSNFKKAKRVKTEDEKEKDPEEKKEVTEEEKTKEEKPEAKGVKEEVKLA
# [3] = target: HDAC4 (Homo sapiens, UniProt P56524); settings: Class 2 HDAC; cited from earlier work
# HDAC4, sequence (P56524 whole entry): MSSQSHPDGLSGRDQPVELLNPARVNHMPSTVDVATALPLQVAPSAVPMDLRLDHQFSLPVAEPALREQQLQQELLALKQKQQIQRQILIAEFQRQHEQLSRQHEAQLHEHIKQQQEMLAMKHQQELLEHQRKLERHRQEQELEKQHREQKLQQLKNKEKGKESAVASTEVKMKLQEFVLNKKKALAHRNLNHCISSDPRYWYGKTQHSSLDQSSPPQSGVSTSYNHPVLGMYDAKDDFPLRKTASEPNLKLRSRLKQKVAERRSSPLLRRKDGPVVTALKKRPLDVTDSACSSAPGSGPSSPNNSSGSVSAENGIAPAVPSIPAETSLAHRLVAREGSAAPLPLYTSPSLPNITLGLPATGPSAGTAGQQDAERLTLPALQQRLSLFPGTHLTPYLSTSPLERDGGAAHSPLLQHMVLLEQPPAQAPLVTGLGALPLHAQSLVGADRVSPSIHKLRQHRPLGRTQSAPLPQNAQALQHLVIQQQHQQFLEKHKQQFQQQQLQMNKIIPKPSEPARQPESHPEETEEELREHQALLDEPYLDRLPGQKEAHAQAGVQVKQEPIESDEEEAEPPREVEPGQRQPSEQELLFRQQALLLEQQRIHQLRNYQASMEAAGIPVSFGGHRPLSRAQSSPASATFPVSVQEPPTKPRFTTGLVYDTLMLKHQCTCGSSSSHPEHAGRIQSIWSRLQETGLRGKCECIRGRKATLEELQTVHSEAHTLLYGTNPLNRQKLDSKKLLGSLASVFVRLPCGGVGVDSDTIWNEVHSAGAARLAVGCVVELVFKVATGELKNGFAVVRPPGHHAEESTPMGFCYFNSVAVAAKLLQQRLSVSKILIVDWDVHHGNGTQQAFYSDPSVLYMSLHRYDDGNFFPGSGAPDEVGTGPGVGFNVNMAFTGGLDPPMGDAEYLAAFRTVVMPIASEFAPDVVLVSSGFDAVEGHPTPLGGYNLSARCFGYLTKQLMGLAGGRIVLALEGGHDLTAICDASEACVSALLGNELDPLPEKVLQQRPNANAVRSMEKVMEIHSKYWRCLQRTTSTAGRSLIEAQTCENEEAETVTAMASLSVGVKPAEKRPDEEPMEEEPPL
# [4] = target: T1, HDAC6 (Homo sapiens, UniProt Q9UBN7); settings: Class 2 HDAC; cited from earlier work
# T1 sequence (Q9UBN7 1-1215): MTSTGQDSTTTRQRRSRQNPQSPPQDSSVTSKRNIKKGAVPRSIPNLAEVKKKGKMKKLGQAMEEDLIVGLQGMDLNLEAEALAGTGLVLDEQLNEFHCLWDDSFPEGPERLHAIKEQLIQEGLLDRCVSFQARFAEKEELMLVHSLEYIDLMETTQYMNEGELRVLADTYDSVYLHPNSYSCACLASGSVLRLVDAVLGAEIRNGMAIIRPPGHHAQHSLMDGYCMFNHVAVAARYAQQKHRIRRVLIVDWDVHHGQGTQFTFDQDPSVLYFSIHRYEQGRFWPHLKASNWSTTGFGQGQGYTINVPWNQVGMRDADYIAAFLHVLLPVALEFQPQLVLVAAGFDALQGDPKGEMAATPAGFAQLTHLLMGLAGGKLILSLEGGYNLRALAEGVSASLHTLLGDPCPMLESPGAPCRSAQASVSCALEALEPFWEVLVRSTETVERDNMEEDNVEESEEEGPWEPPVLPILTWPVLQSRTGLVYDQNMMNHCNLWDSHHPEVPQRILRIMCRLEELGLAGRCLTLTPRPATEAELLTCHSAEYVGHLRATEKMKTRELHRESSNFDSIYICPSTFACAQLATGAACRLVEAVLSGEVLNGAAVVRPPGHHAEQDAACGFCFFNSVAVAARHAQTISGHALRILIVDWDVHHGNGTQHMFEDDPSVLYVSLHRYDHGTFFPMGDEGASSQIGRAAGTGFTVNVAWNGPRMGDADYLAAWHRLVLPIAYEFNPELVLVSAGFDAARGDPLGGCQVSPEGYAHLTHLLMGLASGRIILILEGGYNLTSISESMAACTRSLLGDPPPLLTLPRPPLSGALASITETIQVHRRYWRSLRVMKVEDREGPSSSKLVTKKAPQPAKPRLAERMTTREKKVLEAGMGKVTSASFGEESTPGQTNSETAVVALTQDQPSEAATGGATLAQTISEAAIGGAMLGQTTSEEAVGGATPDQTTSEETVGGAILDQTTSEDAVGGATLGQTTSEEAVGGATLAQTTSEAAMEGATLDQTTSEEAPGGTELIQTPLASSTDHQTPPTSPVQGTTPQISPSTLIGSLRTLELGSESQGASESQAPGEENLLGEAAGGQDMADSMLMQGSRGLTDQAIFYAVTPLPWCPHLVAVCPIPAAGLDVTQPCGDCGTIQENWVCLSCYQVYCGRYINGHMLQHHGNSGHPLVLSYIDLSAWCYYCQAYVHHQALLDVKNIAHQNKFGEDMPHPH
# [5] = target: HDAC3 (Homo sapiens, UniProt O15379); settings: cited from earlier work; for IC50: read-out: IC50 HDAC3
# HDAC3, sequence (O15379 whole entry): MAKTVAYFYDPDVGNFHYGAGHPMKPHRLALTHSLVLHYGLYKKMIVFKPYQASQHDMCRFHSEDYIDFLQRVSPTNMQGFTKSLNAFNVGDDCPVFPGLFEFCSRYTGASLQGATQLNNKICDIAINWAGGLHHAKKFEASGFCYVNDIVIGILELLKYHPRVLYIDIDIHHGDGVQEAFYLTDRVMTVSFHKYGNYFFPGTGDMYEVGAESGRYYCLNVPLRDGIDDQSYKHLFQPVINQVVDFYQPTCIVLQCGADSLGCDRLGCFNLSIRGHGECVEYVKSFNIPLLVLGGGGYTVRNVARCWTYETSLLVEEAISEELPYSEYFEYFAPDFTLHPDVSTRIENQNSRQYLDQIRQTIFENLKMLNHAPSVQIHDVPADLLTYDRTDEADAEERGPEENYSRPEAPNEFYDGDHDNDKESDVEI
# HDAC3, sequence (Q9Y618 395-489 partner limits assumed): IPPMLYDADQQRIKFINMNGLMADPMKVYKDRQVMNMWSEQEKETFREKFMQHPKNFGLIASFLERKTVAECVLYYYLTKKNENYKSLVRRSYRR
# [6] = tested on: H23 and SW13 cell lines; experiment: Toxicity to BRG1/BRM-deficient cell lines; format: cell-based, human; settings: most pronounced in the H23 and SW13 cell lines
# [7] = target: T2, HDAC10 (Homo sapiens, UniProt Q969S8); settings: Class 2 HDAC; cited from earlier work
# T2 sequence (Q969S8 1-669): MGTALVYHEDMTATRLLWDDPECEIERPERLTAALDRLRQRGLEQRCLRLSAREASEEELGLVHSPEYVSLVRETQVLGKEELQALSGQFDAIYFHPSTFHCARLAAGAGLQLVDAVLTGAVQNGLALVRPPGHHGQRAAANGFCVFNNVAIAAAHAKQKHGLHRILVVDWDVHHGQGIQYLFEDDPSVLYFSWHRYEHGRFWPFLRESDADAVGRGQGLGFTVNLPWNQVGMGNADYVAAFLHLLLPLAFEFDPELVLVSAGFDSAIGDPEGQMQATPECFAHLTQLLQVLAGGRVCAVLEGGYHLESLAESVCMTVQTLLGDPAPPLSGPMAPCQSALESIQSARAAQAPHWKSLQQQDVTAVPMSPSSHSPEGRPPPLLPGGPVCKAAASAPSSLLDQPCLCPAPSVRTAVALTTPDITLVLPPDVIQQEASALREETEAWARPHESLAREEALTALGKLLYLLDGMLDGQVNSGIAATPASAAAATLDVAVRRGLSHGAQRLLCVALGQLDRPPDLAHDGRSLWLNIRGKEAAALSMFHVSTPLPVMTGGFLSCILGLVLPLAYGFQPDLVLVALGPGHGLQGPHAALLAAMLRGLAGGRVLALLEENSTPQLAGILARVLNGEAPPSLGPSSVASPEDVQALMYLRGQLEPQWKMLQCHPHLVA
# [8] = tested on: Class 3 HDACs; settings: cited from earlier work
# [9] = target: T3, HDAC8 (Homo sapiens, UniProt Q9BY41); settings: Class 1 HDAC; cited from earlier work
# T3 sequence (Q9BY41 1-377): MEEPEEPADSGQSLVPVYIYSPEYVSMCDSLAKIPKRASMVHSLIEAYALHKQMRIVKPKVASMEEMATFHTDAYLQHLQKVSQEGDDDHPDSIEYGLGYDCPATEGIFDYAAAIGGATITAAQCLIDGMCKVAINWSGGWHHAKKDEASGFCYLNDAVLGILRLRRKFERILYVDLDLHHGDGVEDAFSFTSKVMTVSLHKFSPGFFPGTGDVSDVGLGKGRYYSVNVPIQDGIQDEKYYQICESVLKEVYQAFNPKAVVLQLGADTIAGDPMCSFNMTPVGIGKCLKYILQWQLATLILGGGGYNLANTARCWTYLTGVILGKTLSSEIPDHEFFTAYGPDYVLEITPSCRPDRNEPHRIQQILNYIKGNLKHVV
# [10] = target: HDAC5 (Homo sapiens, UniProt Q9UQL6); settings: Class 2 HDAC; cited from earlier work
# HDAC5, sequence (Q9UQL6 whole entry): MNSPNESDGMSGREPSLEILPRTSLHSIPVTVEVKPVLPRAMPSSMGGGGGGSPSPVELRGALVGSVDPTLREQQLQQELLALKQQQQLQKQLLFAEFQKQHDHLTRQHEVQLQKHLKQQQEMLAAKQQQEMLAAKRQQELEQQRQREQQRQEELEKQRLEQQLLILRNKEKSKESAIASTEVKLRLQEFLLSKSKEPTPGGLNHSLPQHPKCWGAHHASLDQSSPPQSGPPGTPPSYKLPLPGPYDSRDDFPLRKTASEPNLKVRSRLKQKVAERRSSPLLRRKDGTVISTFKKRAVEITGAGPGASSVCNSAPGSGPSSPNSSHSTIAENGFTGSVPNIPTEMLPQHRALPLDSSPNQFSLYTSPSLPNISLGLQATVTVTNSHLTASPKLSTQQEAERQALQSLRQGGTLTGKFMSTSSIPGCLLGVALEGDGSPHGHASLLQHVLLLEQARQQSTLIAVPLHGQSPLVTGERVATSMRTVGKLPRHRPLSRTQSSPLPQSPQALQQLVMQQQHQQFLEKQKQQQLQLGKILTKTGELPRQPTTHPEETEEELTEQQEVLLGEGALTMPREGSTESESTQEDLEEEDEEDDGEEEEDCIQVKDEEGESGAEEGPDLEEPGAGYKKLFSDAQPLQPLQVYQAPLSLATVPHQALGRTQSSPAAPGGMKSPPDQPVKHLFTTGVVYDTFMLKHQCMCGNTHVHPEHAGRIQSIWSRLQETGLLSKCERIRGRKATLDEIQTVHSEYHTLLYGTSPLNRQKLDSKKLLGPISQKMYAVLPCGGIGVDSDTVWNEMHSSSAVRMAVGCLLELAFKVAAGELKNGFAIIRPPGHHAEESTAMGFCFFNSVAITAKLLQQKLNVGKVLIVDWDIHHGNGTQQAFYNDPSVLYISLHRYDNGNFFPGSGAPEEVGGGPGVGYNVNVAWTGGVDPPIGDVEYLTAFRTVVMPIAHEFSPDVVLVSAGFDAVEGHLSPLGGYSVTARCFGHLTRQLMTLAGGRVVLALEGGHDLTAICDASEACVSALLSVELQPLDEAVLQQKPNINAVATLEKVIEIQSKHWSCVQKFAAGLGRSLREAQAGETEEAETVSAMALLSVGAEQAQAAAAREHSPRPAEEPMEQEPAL
# [11] = target: HDAC9 (Homo sapiens, UniProt Q9UKV0); settings: Class 2 HDAC; cited from earlier work
# HDAC9, sequence (Q9UKV0 whole entry): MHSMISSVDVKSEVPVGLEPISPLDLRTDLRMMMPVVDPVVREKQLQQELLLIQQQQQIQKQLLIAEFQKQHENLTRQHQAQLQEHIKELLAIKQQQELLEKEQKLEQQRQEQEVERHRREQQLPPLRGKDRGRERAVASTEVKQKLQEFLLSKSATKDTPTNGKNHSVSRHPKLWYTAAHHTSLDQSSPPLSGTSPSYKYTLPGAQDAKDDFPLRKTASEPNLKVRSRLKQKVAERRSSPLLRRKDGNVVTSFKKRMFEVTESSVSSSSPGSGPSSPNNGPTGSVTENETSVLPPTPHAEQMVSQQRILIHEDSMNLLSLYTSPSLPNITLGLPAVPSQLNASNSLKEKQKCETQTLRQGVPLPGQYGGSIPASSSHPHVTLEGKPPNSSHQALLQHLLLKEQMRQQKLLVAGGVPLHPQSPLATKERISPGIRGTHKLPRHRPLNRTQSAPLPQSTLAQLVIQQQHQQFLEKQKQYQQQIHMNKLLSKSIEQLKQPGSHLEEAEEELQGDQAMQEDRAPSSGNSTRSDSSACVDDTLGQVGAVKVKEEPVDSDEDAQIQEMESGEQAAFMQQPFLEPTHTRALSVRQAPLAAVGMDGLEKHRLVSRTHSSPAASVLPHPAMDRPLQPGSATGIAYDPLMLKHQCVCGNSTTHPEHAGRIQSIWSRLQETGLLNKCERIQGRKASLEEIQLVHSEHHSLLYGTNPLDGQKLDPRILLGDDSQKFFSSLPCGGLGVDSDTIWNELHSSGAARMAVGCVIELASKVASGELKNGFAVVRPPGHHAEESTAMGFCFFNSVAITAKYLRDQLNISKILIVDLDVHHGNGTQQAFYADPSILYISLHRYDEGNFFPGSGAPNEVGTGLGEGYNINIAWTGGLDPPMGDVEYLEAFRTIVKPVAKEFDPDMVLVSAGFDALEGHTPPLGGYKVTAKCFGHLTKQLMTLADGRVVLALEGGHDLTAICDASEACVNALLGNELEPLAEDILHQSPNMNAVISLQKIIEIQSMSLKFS
# [12] = target: HDAC2 (Homo sapiens, UniProt Q92769); settings: Class 1 HDAC; cited from earlier work
# HDAC2, sequence (Q92769 whole entry): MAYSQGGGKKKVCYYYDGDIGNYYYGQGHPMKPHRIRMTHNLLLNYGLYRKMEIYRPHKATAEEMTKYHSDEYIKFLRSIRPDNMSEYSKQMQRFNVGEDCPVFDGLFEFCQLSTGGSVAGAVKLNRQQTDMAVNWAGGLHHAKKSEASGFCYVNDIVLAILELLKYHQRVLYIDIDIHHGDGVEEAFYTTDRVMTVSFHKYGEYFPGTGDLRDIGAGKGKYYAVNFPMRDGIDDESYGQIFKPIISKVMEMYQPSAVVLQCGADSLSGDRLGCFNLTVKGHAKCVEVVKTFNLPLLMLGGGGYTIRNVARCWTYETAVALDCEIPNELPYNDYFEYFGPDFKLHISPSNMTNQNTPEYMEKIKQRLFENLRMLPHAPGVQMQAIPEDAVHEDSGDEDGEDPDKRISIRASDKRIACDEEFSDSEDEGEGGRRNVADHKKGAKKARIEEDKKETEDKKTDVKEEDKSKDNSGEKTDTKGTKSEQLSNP
# [13] = tested on: BRM expression; experiment: Time course of BRM expression in SW13 cells with butyrate and after its removal; format: cell-based, human
# Description: Cells were treated daily with sodium butyrate (5 mM). Total protein was extracted at 4, 12, 24, 36, […], and 72 hours after the first dosage. Upregulation of BRM with butyrate treatment was detected after 12 hours and reached a plateau between 24 and 48 hours. GAPDH was the loading control. […] Cells were treated with sodium butyrate at a final concentration of 5 mM for three consecutive days. On the fourth day, the medium was changed and cells were harvested at various time points for protein detection. BRM protein levels declined and returned to baseline after 4-5 days. (NaBut=sodium butyrate, un=untreated).
# This Example describes an analysis of the temporal effects of HDAC inhibitors on BRM re-expression. In partciular, to understand how HDAC inhibitors affected BRM expression, the time course at which BRM expression in SW13 cells was induced by continued exposure to butyrate was determined. The upregulation of BRM expression was detected by western blot analysis at 12 hours and reached a plateau at 24 hours. Little change in BRM expression occurred with continued treatment for an additional 48 hours (FIG. 3A). This process was reversible, as BRM expression returned to pretreatment levels after removal of sodium butyrate. To further characterize this effect, SW13 cells were treated with butyrate for 72 hours, sodium butyrate was removed, and BRM levels were measured by western blotting from 0 to 6 days. The BRM protein levels remained elevated for 72 hours and returned to near baseline levels at 96 hours (FIG. 3B). In parallel with BRM protein, the BRM mRNA level determined by quantative RT-PCR, also remained elevated for 3 days, returning to baseline level by 4 days. These findings indicate the changes in BRM protein levels paralleled the changes in the BRM mRNA levels.
# [14] = tested on: BRM expression; experiment: BRM mRNA (RT-PCR) and protein (western blotting) expression in BRG1/BRM-deficient cell lines after treatment
# Description: This example describes the treatment of cells lines with undetectable BRG1 and BRM protein expression with various HDAC inhibitors or 5-aza-deoxycytidine (5-azaCdR). […] This upregulation effect was also examined in the six other BRG1/BRM-deficient cell lines, using RT-PCR.
# [15] = SW13, continued exposure, 5 mM daily (FIG. 3A)
# [16] = SW13, treated 72 hours, then removed
# [17] = SW13, treated 72 hours, then removed (FIG. 3B)
smiles,measurement,setting,value
"Nc1ncn([C@H]2C[C@H](O)[C@@H](CO)O2)c(=O)n1 [5azaCytD, 5-aza-deoxycytidine]","Silencing of p16, semi-quantitative RT-PCR",[1],reversed
C/C=C1\NC(=O)[C@H]2CSSCC/C=C/[C@H](CC(=O)N[C@H](C(C)C)C(=O)N2)OC(=O)[C@H](C(C)C)NC1=O [FR901228],Sensitivity of HDAC1 to the inhibitor,[2],Yes
same,Sensitivity of HDAC4 to the inhibitor,[3],weak
same,Sensitivity of HDAC6 to the inhibitor,[4],weak
same,Sensitivity of HDAC3 to the inhibitor,[5]; Class 1 HDAC,Yes
Nc1ccccc1NC(=O)c1ccc(CNC(=O)OCc2cccnc2)cc1 [MS-275],Toxicity to cell lines compared to butyrate,[6],increased toxicity
O=C1N[C@@H](Cc2ccccc2)C(=O)N2CCC[C@@H]2C(=O)N[C@@H](CCCCCC(=O)[C@@H]2CO2)C(=O)N[C@H]1Cc1ccccc1 [Trapoxin] (cyclo(FF[dP][Aoe])),Sensitivity of HDAC6 to the inhibitor,[4],No
same,Sensitivity of HDAC10 to the inhibitor,[7],No
same,Sensitivity of HDAC3 to the inhibitor,[5]; Class 1 HDAC,Yes
same,IC50,[5],~0.1 µM
"CC(/C=C/C(=O)NO)=C\[C@@H](C)C(=O)c1ccc(N(C)C)cc1 [Trichostatin A, trichostatin A]",Sensitivity of HDAC1 to the inhibitor,[2],Yes
same,Sensitivity of HDAC4 to the inhibitor,[3],Yes
same,Sensitivity of HDAC6 to the inhibitor,[4],Yes
same,Sensitivity of HDAC10 to the inhibitor,[7],Yes
same,Sensitivity of Class 3 HDACs to the inhibitor,[8],Resistance
same,Sensitivity of HDAC8 to the inhibitor,[9],Yes
same,Sensitivity of HDAC5 to the inhibitor,[10],Yes
same,Sensitivity of HDAC9 to the inhibitor,[11],Yes
"CCCC(CCC)C(=O)O [Valpoic Acid, valproic acid]",Sensitivity of HDAC1 to the inhibitor,[2],yes
same,Sensitivity of HDAC2 to the inhibitor,[12],yes
CCCC(=O)[O-].[Na+] [sodium butyrate],Time at which BRM protein levels returned to baseline after medium change,"[13]; 5 mM for three consecutive days, medium changed on fourth day (FIG. 3B)",4 to 5 days
same,Change in BRM expression with continued treatment for an additional 48 hours,"[13]; SW13, after plateau (FIG. 3A)",Little change
same,"Time at which BRM protein expression reached a plateau, western blot",[13]; [15],24 h
same,"Time at which upregulation of BRM protein was detected, western blot",[13]; [15],12 h
same,"Time BRM mRNA level remained elevated after removal, quantitative RT-PCR",[13]; [16],3 days
same,"Time at which BRM mRNA returned to baseline after removal, quantitative RT-PCR",[13]; [16],≤ 4 days
same,Time BRM protein levels remained elevated after removal,[13]; [17],72 h
same,Time at which BRM protein returned to near baseline after removal,[13]; [17],96 h
same,Sensitivity of HDAC1 to the inhibitor,[2],Yes
same,IC50,[2],~300 µM
same,Sensitivity of HDAC6 to the inhibitor,[4],No
same,Sensitivity of HDAC10 to the inhibitor,[7],No
same,Sensitivity of Class 3 HDACs to the inhibitor,[8],Resistance
same,Sensitivity of HDAC3 to the inhibitor,[5],Yes
same,IC50,[5],~300 µM
same,Sensitivity of HDAC8 to the inhibitor,[9],Yes
same,"Induction of BRM, RT-PCR","[14]; Panc-1 and H513 cell lines, butyrate treatment",failed to demonstrate an appreciable induction
same,"Number of the ten BRG1/BRM-deficient cell lines showing BRM transcript re-expression, RT-PCR","[14]; after butyrate treatment, of ten cell lines",eight
same,"Upregulation of BRM, cyber-green quantitation PCR","[14]; butyrate treatment, responding BRG1/BRM-deficient cell lines",8-20 fold
